Assay results as given in patent US20200024278A1, “COMPOSITION COMPRISING ANTIBIOTIC COMPOUND AND AN HETEROCYCLIC COMPOUND AND THEIR USE IN PREVENTING OR TREATING BACTERIAL INFECTIONS” (MUTABILIS, priority 2016, published 2020).
Counter-ions that a name gives are not always drawn.

What was measured:
Experiment in all cases: MIC, broth microdilution (CLSI), substance alone or ATB combined with compound at 4 or 8 μg/mL
ECO 190317 = assay type: cell-based, E. coli; details: ECO 190317; for MIC ATB combined with Example: Example @8 μg/ml
Method in brief: (§1)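 CLSI M7-A7 broth microdilution. ca-MHB, 5·10^5 CFU/mL log-phase cells, 16-20 h, 35° C, ambient air. Fosfomycin wells + 25 μg/ml glucose-6-phosphate. Visual MIC read.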

ECO UFR39 = assay type: cell-based, E. coli; details: ECO UFR39; for MIC ATB combined with Example: Example @8 μg/ml
Method in brief: as §1

KPN 6299 = assay type: cell-based, K. pneumoniae; details: Example @8 μg/ml
Method in brief: as §1

KPN BAA-1898 = assay type: cell-based, K. pneumoniae; details: KPN BAA-1898; for MIC ATB combined with Example: Example @8 μg/ml
Method in brief: as §1

KPN UFR42 = assay type: cell-based, K. pneumoniae; details: KPN UFR42; for MIC ATB combined with Example: Example @8 μg/ml
Method in brief: as §1

ECL P99 = assay type: cell-based, E. cloacae; details: ECL P99; for MIC ATB combined with Example: Example @8 μg/ml
Method in brief: as §1

PAE 105250 = assay type: cell-based, P. aeruginosa; details: PAE 105250; for MIC ATB combined with Example: Example @8 μg/ml
Method in brief: as §1

PAE UFR48 = assay type: cell-based, P. aeruginosa; details: PAE UFR48; for MIC ATB combined with Example: Example @8 μg/ml
Method in brief: as §1

PAE UFR90 = assay type: cell-based, P. aeruginosa; details: PAE UFR90; for MIC ATB combined with Example: Example @8 μg/ml
Method in brief: as §1

SAU 29213 = assay type: cell-based, S. aureus; details: for MIC ATB combined with Example: SAU 29213, Example @8 μg/ml
Method in brief: as §1

SPN 49619 = assay type: cell-based, S. pneumoniae; details: SPN 49619; for MIC ATB combined with Example: Example @8 μg/ml
Method in brief: as §1

ABA 107292 = assay type: cell-based, A. baumannii; details: Acinetobacter baumannii, substance alone, read-out: MIC
Method in brief: as §1

ABA 19606 = assay type: cell-based, A. baumannii; details: Acinetobacter baumannii, substance alone, read-out: MIC
Method in brief: as §1

[1] = Escherichia coli, substance alone, read-out: MIC
[2] = Pseudomonas aeruginosa, substance alone, read-out: MIC

## NCCCn1c2c(sc1=O)C1CN(C2)C(=O)N1OS(=O)(=O)O (stereo not shown) [Example 10, [5-(3-aminopropyl)-4,9-dioxo-3-thia-5,8,10-triaza-tricyclo[6.2.1.0^2,6]undec-2(6)-en-10-yl] hydrogen sulfate]
ECO 190317; ATB ATM
  MIC ATB combined with Example: <0.031 µg/mL
ECO 190317; ATB FEP
  MIC ATB combined with Example: <0.031 µg/mL
ECO 190317; ATB FOS
  MIC ATB combined with Example: <0.125 µg/mL
ECO 190317; ATB MEM
  MIC ATB combined with Example: <0.031 µg/mL
ECO 190317; ATB PIP
  MIC ATB combined with Example: <0.031 µg/mL
ECO 190317; [1]
  MIC: 0.5 µg/mL
ECO UFR39; ATB ATM
  MIC ATB combined with Example: <=0.031 μg/mL
ECO UFR39; ATB FEP
  MIC ATB combined with Example: <=0.031 μg/mL
ECO UFR39; ATB FOS
  MIC ATB combined with Example: <0.125 µg/mL
ECO UFR39; ATB MEM
  MIC ATB combined with Example: <0.031 µg/mL
ECO UFR39; ATB PIP
  MIC ATB combined with Example: <0.031 µg/mL
ECO UFR39; [1]
  MIC: 2 µg/mL
KPN 6299; ATB ATM
  MIC ATB combined with Example: <=0.031 μg/mL
KPN 6299; ATB FEP
  MIC ATB combined with Example: 0.063 µg/mL
KPN 6299; ATB FOS
  MIC ATB combined with Example: 32 µg/mL
KPN 6299; ATB MEM
  MIC ATB combined with Example: 0.063 µg/mL
KPN 6299; ATB PIP
  MIC ATB combined with Example: 1 µg/mL
KPN BAA-1898; ATB ATM
  MIC ATB combined with Example: <=0.031 μg/mL
KPN BAA-1898; ATB FEP
  MIC ATB combined with Example: <=0.031 μg/mL
KPN BAA-1898; ATB FOS
  MIC ATB combined with Example: 2 µg/mL
KPN BAA-1898; ATB MEM
  MIC ATB combined with Example: <=0.031 μg/mL
KPN BAA-1898; ATB PIP
  MIC ATB combined with Example: <=0.031 μg/mL
KPN BAA-1898; Klebsiella pneumoniae, BAA1898, substance alone, read-out: MIC
  MIC: 16 µg/mL
KPN UFR42; ATB ATM
  MIC ATB combined with Example: 0.063 µg/mL
KPN UFR42; ATB FEP
  MIC ATB combined with Example: <=0.031 μg/mL
KPN UFR42; ATB FOS
  MIC ATB combined with Example: 8 µg/mL
KPN UFR42; ATB MEM
  MIC ATB combined with Example: >32 µg/mL
KPN UFR42; ATB PIP
  MIC ATB combined with Example: >32 µg/mL
KPN UFR42; Klebsiella pneumoniae, substance alone, read-out: MIC
  MIC: > 32 µg/mL
ECL P99; ATB ATM
  MIC ATB combined with Example: <0.031 µg/mL
ECL P99; ATB FEP
  MIC ATB combined with Example: <0.031 µg/mL
ECL P99; ATB FOS
  MIC ATB combined with Example: <0.125 µg/mL
ECL P99; ATB MEM
  MIC ATB combined with Example: <0.031 µg/mL
ECL P99; ATB PIP
  MIC ATB combined with Example: <0.031 µg/mL
ECL P99; Enterobacter cloacae, substance alone, read-out: MIC
  MIC: 2 µg/mL
PAE 105250; ATB ATM
  MIC ATB combined with Example: <0.031 µg/mL
PAE 105250; ATB FEP
  MIC ATB combined with Example: <0.031 µg/mL
PAE 105250; ATB FOS
  MIC ATB combined with Example: <0.125 µg/mL
PAE 105250; ATB MEM
  MIC ATB combined with Example: <0.031 µg/mL
PAE 105250; ATB PIP
  MIC ATB combined with Example: <0.031 µg/mL
PAE 105250; [2]
  MIC: 4 µg/mL
PAE UFR48; ATB ATM
  MIC ATB combined with Example: <0.031 µg/mL
PAE UFR48; ATB FEP
  MIC ATB combined with Example: <0.031 µg/mL
PAE UFR48; ATB FOS
  MIC ATB combined with Example: <0.125 µg/mL
PAE UFR48; ATB MEM
  MIC ATB combined with Example: <0.031 µg/mL
PAE UFR48; ATB PIP
  MIC ATB combined with Example: <0.031 µg/mL
PAE UFR48; [2]
  MIC: 4 µg/mL
PAE UFR90; ATB ATM
  MIC ATB combined with Example: <0.031 µg/mL
PAE UFR90; ATB FEP
  MIC ATB combined with Example: <0.031 µg/mL
PAE UFR90; ATB FOS
  MIC ATB combined with Example: <0.125 µg/mL
PAE UFR90; ATB MEM
  MIC ATB combined with Example: <0.031 µg/mL
PAE UFR90; ATB PIP
  MIC ATB combined with Example: <0.031 µg/mL
PAE UFR90; [2]
  MIC: 4 µg/mL
SAU 29213; ATB ATM
  MIC ATB combined with Example: >32 µg/mL
SAU 29213; ATB FEP
  MIC ATB combined with Example: 0.5 µg/mL
SAU 29213; ATB FOS
  MIC ATB combined with Example: <=0.125 μg/mL
SAU 29213; ATB MEM
  MIC ATB combined with Example: <=0.031 μg/mL
SAU 29213; ATB PIP
  MIC ATB combined with Example: 1 µg/mL
SAU 29213; Staphylococcus aureus, substance alone, SAU 29213 (MSSA 29213), read-out: MIC
  MIC: 32 µg/mL
SPN 49619; ATB ATM
  MIC ATB combined with Example: <0.031 µg/mL
SPN 49619; ATB FEP
  MIC ATB combined with Example: <0.031 µg/mL
SPN 49619; ATB FOS
  MIC ATB combined with Example: <0.125 µg/mL
SPN 49619; ATB MEM
  MIC ATB combined with Example: <0.031 µg/mL
SPN 49619; ATB PIP
  MIC ATB combined with Example: <0.031 µg/mL
SPN 49619; Streptococcus pneumoniae, substance alone, read-out: MIC
  MIC: 1 µg/mL
ABA 107292
  MIC: > 32 µg/mL
ABA 19606
  MIC: 32 µg/mL
